From patent US11491228B2, “Hydrogels and uses thereof” (Massachusetts Institute of Technology, priority 2018, dated 2022)

Experiment: Release of taxanes from PEG alkynoate-TREN (beta-aminoacrylate) gel into PBS, HPLC
Format: physicochemical
Details: 37° C.
Procedure: Samples were stored at +4° C. […] The wavelength of detection was 227 nm. Phases were A: water, B: MeCN.

Structure (SMILES): CC(=O)O[C@@]12CO[C@@H]1C[C@H](O)[C@@]1(C)C(=O)[C@H](O)C3=C(C)[C@@H](OC(=O)[C@H](O)[C@@H](NC(=O)OC(C)(C)C)c4ccccc4)C[C@@](O)([C@@H](OC(=O)c4ccccc4)[C@H]21)C3(C)C [Docetaxel, docetaxel]
- Concentrations of taxane following release from PEG alkynoate-TREN gels (1 h, average): 0.03929 µg/mL
- Concentrations of taxane following release from PEG alkynoate-TREN gels (1 h, replicate A): -0.1523 µg/mL
- Concentrations of taxane following release from PEG alkynoate-TREN gels (1 h, replicate B): 0.4224 µg/mL
- Concentrations of taxane following release from PEG alkynoate-TREN gels (1 h, replicate C): -0.1523 µg/mL
- Concentrations of taxane following release from PEG alkynoate-TREN gels (2 h, average): 0.2014 µg/mL
- Concentrations of taxane following release from PEG alkynoate-TREN gels (2 h, replicate A): -0.1523 µg/mL
- Concentrations of taxane following release from PEG alkynoate-TREN gels (2 h, replicate B): 0.555 µg/mL
- Concentrations of taxane following release from PEG alkynoate-TREN gels (2 h, replicate C): 0.2014 µg/mL
- Concentrations of taxane following release from PEG alkynoate-TREN gels (5 h, average): 0.3635 µg/mL
- Concentrations of taxane following release from PEG alkynoate-TREN gels (5 h, replicate A): 1.041 µg/mL
- Concentrations of taxane following release from PEG alkynoate-TREN gels (5 h, replicate B): 0.2014 µg/mL
- Concentrations of taxane following release from PEG alkynoate-TREN gels (5 h, replicate C): -0.1523 µg/mL
- Concentrations of taxane following release from PEG alkynoate-TREN gels (20 h, average): 0.2677 µg/mL
- Concentrations of taxane following release from PEG alkynoate-TREN gels (20 h, replicate A): 0.6434 µg/mL
- Concentrations of taxane following release from PEG alkynoate-TREN gels (20 h, replicate B): 0.3119 µg/mL
- Concentrations of taxane following release from PEG alkynoate-TREN gels (20 h, replicate C): -0.1523 µg/mL
- Concentrations of taxane following release from PEG alkynoate-TREN gels (48 h, average): 1.1279 µg/mL
- Concentrations of taxane following release from PEG alkynoate-TREN gels (48 h, replicate A): 0.9847 µg/mL
- Concentrations of taxane following release from PEG alkynoate-TREN gels (48 h, replicate B): 1.003 µg/mL
- Concentrations of taxane following release from PEG alkynoate-TREN gels (48 h, replicate C): 1.396 µg/mL
- % released from PEG alkynoate-TREN gels (Table 3, 1 h, average): 0.05239%
- % released from PEG alkynoate-TREN gels (Table 3, 1 h, replicate A): −0.203%
- % released from PEG alkynoate-TREN gels (Table 3, 1 h, replicate B): 0.5632%
- % released from PEG alkynoate-TREN gels (Table 3, 1 h, replicate C): −0.203%
- % released from PEG alkynoate-TREN gels (Table 3, 2 h, average): 0.2685%
- % released from PEG alkynoate-TREN gels (Table 3, 2 h, replicate A): −0.203%
- % released from PEG alkynoate-TREN gels (Table 3, 2 h, replicate B): 0.74%
- % released from PEG alkynoate-TREN gels (Table 3, 2 h, replicate C): 0.2685%
- % released from PEG alkynoate-TREN gels (Table 3, 5 h, average): 0.4846%
- % released from PEG alkynoate-TREN gels (Table 3, 5 h, replicate A): 1.388%
- % released from PEG alkynoate-TREN gels (Table 3, 5 h, replicate B): 0.2685%
- % released from PEG alkynoate-TREN gels (Table 3, 5 h, replicate C): −0.203%
- % released from PEG alkynoate-TREN gels (Table 3, 20 h, average): 0.3569%
- % released from PEG alkynoate-TREN gels (Table 3, 20 h, replicate A): 0.8579%
- % released from PEG alkynoate-TREN gels (Table 3, 20 h, replicate B): 0.4158%
- % released from PEG alkynoate-TREN gels (Table 3, 20 h, replicate C): −0.203%
- % released from PEG alkynoate-TREN gels (Table 3, 48 h, average): 1.504%
- % released from PEG alkynoate-TREN gels (Table 3, 48 h, replicate A): 1.3129%
- % released from PEG alkynoate-TREN gels (Table 3, 48 h, replicate B): 1.337%
- % released from PEG alkynoate-TREN gels (Table 3, 48 h, replicate C): 1.862%
- % released from PEG alkynoate-TREN gels (Table 4, 1 h, average): 2.074%
- % released from PEG alkynoate-TREN gels (Table 4, 1 h, replicate A): 2.465%
- % released from PEG alkynoate-TREN gels (Table 4, 1 h, replicate B): 2.016%
- % released from PEG alkynoate-TREN gels (Table 4, 1 h, replicate C): 1.741%
- % released from PEG alkynoate-TREN gels (Table 4, 6 h, average): 4.82%
- % released from PEG alkynoate-TREN gels (Table 4, 6 h, replicate A): 6.195%
- % released from PEG alkynoate-TREN gels (Table 4, 6 h, replicate B): 4.946%
- % released from PEG alkynoate-TREN gels (Table 4, 6 h, replicate C): 3.318%
- % released from PEG alkynoate-TREN gels (Table 4, 24 h, average): 7.196%
- % released from PEG alkynoate-TREN gels (Table 4, 24 h, replicate A): 11.23%
- % released from PEG alkynoate-TREN gels (Table 4, 24 h, replicate B): 7.325%
- % released from PEG alkynoate-TREN gels (Table 4, 24 h, replicate C): 3.032%
- % released from PEG alkynoate-TREN gels (Table 4, 96 h, average): 12.3%
- % released from PEG alkynoate-TREN gels (Table 4, 96 h, replicate A): 8.246%
- % released from PEG alkynoate-TREN gels (Table 4, 96 h, replicate B): 9.349%
- % released from PEG alkynoate-TREN gels (Table 4, 96 h, replicate C): 19.32%
